Measured values as given in US12053506B2, “Romo1-derived antimicrobial peptides and variants thereof” (priority 2019, dated 2024).
In brackets after ≈: the same amount, converted by molar mass. Like-named read-outs stand apart in the source and are kept apart here. Non-standard residues stand in square brackets, D forms with d. Residues, ends and D or L forms follow the SMILES beside them. No end group written: not given here. Nle = CCCC[C@H](N)C(=O)O

How the values were obtained:
[1] = system: Pseudomonas aeruginosa (ATCC 27853); assay type: cell-based; details: for MBC Pseudomonas aeruginosa: Tables 11-15, no unit printed
From the text: (§1) Romo1 protein comprises two α-helices. The present inventors synthesized the α-helix 2 region having both hydrophilicity and hydrophobicity, and evaluated the antibacterial activity thereof using minimum bactericidal concentration (MBC) assay. The α-helix 2 region was named KU-5279 (the 52-79 amino acid region of Romo1 protein). Then, in order to identify peptides that are beneficial for human application and have excellent antibacterial activity, the present inventors synthesized several peptides comprising a sequence of contiguous amino acids starting at any amino acid selected from the 52-79 amino acid region of Romo1 protein, and comparatively evaluated the antibacterial activities of the peptides by minimum bactericidal concentration assay (See Table 1 below for information on each peptide). Evaluation of the antibacterial activity of each peptide by minimum bactericidal concentration assay was specifically performed as follows. First, each of Pseudomonas aeruginosa (ATCC 27853) and Staphylococcus aureus (ATCC 29213) was cultured in 3% (w/v) TSB (Tryptic Soy Broth) liquid medium at 37° C. and 200 rpm for 4 hours, and then further cultured under the same conditions for 3 hours to a concentration of 5×10^6 CFU/ml. Strain solutions were prepared by diluting each of the further cultured strains with SP (sodium phosphate; 10 mM sodium phosphate, 1% TSB) buffer to a final concentration of 2×10^5 CFU/ml. Then, each peptide at varying concentrations (0 μg/ml to 300 μg/ml) was dispensed into each well of a 96-well microplate, and 100 μl (1×10^5 CFU/ml) of each of the prepared strain solutions was added thereto, mixed therewith, and allowed to react with the peptide in an incubator at 37° C. for 1 hour. In addition, 30 g/L of TS (tryptic soy) and 15 g/L of agar were dissolved in distilled water and sterilized, and then 25 ml of the solution was poured onto a 100 mm round plate and solidified at room temperature for one day or more, thereby preparing a TS agar plate. 10 μl of each reaction solution of the peptide and the strain was plated on the TS agar plate at a constant size, and incubated in an incubator at 37° C. for 18 hours, and then colony formation on the plate was checked. The minimum bactericidal concentration was defined as the minimum concentration of the peptide at which no colony was formed, and the experimental results are shown in Table 1 below.

[2] = system: Staphylococcus aureus (ATCC 29213); assay type: cell-based; details: for MBC Staphylococcus aureus: Tables 11-15, no unit printed
From the text: as §1

CRPA = assay: MBC, evaluation of antibacterial activities of KU-5878 variants; assay type: cell-based; details: Tables 11-15, no unit printed
Description: Variants were prepared by deleting one amino acid from the amino acid sequence of KU-5878 (SEQ ID NO: 13), and the antibacterial activities thereof were evaluated.
Variants were prepared by deleting two or more amino acids from the amino acid sequence of KU-5878 (SEQ ID NO: 13), and the antibacterial activities thereof were evaluated.
One amino acid in the amino acid sequence of KU-5878 (SEQ ID NO: 13) was substituted, and the antibacterial activities of the peptides were evaluated.
Substitutions of Q62K, S63K and T66K were sequentially added to the amino acid sequence of KU-5878-T59K, and the antibacterial activities of the peptides were evaluated.
An amino acid repeat sequence was added to the C-terminus of KU-5878, and the antibacterial activities of the peptides were evaluated. According to Table 15 below, when the R (arginine) repeat sequence or K (lysine) sequence was added to the C-terminus of KU-5878, the antibacterial activity of the peptide increased.

[3] = system: methicillin-resistant Staphylococcus aureus (ATCC 33591); details: Tables 11-15, no unit printed
Description: First, each of Pseudomonas aeruginosa (ATCC 27853) and Staphylococcus aureus (ATCC 29213) was cultured in 3% (w/v) TSB (Tryptic Soy Broth) liquid medium at 37° C. and 200 rpm for 4 hours, and then further cultured under the same conditions for 3 hours to a concentration of 5×10^6 CFU/ml. Strain solutions were prepared by diluting each of the further cultured strains with SP (sodium phosphate; 10 mM sodium phosphate, 1% TSB) buffer to a final concentration of 2×10^5 CFU/ml.
(§2) Then, each peptide at varying concentrations (0 μg/ml to 300 μg/ml) was dispensed into each well of a 96-well microplate, and 100 μl (1×10^5 CFU/ml) of each of the prepared strain solutions was added thereto, mixed therewith, and allowed to react with the peptide in an incubator at 37° C. for 1 hour.
In addition, 30 g/L of TS (tryptic soy) and 15 g/L of agar were dissolved in distilled water and sterilized, and then 25 ml of the solution was poured onto a 100 mm round plate and solidified at room temperature for one day or more, thereby preparing a TS agar plate. 10 μl of each reaction solution of the peptide and the strain was plated on the TS agar plate at a constant size, and incubated in an incubator at 37° C. for 18 hours, and then colony formation on the plate was checked.
Specifically, each type of bacteria was cultured in 3% (w/v) TSB (Tryptic Soy Broth) liquid medium at 37° C. and 200 rpm for 4 hours, and then further cultured under the same conditions for 3 hours to a concentration of 5×10^6 CFU/ml. Strain solutions were prepared by diluting each of the […] of 2×10^5 CFU/ml.
as §2, with “Then, the KU-5878” for “Then, each”
In addition, 10 μl of each reaction solution of the peptide and the strain was plated on the TS agar plate at a constant size, and incubated in an incubator at 37° C. for 18 hours, and then colony formation on the plate was checked.

Row | Molecule | MBC Pseudomonas aeruginosa [1] | MBC Staphylococcus aureus [2] | MBC CRPA (CRPA) | MBC MRSA [3] | MBC value (μg/ml) against Pseudomonas aeruginosa ([1]; ATCC 27853, 1 h) | MBC value (μg/ml) against Staphylococcus aureus ([2]; ATCC 29213, 1 h) | further results
1 | KT-MQS-GTFGTFM-IG-GIR [5878-d60M, d64G, d72A, d75M] | 120 µg/mL | 100 µg/mL | 120 µg/mL | 120 µg/mL | – | – | –
2 | KHMMQSGGTFGTFMAIGMGIR [KU-5878-T59H] | > 300 µg/mL | > 300 µg/mL | > 300 µg/mL | > 300 µg/mL | – | – | –
3 | KTMMQSGGTFGTWMAIGMGIR [KU-5878-F70W] | 300 µg/mL | 300 µg/mL | 300 µg/mL | > 300 µg/mL | 300 µg/mL | 300 µg/mL | –
4 | KTMMQRGGTFGTFMAIGMGIR [KU-5878-S63R] | 20 µg/mL | 15 µg/mL | 20 µg/mL | 25 µg/mL | – | – | –
5 | KTMMQSGGAFGTFMAIGMGIR [KU-5878-T66A] | > 300 µg/mL | > 300 µg/mL | > 300 µg/mL | > 300 µg/mL | – | – | –
6 | KTMMQSGGTFGTF-AIG-GIR [5878-d71M, d75M] | 300 µg/mL | 250 µg/mL | 300 µg/mL | 300 µg/mL | – | – | –
7 | CCCC[C@H](NC(=O)CNC(=O)[C@@H](NC(=O)[C@H](C)NC(=O)[C@H](CCCC)NC(=O)[C@H](Cc1ccccc1)NC(=O)[C@@H](NC(=O)CNC(=O)[C@H](Cc1ccccc1)NC(=O)[C@@H](NC(=O)CNC(=O)CNC(=O)[C@H](CO)NC(=O)[C@H](CCC(N)=O)NC(=O)[C@H](CCCC)NC(=O)[C@H](CCCC)NC(=O)[C@@H](NC(=O)[C@@H](N)CCCCN)[C@@H](C)O)[C@@H](C)O)[C@@H](C)O)[C@@H](C)CC)C(=O)NCC(=O)N[C@H](C(=O)N[C@@H](CCCNC(=N)N)C(=O)O)[C@@H](C)CC [KU-5878-4Nle] (H-KT[Nle][Nle]QSGGTFGTF[Nle]AIG[Nle]GIR-OH; N-terminus and C-terminus assumed) | 110 µg/mL (≈ 51.1 µM) | 90 µg/mL (≈ 41.8 µM) | 100 µg/mL (≈ 46.5 µM) | 100 µg/mL (≈ 46.5 µM) | 110 µg/mL (≈ 51.1 µM) | 90 µg/mL (≈ 41.8 µM) | –
8 | KTMMQSGGTFGTFMGIGMGIR [KU-5878-A72G] | > 300 µg/mL | > 300 µg/mL | > 300 µg/mL | > 300 µg/mL | 350 µg/mL | 350 µg/mL | –
9 | KTMMQSGGTFGTFMAIGMGI [KU-5877] | – | – | – | – | >300 µg/mL | >300 µg/mL | –
10 | KTMMQSGGTFGTFMAIG-GIR [Peptide 5878-d75M] | 100 µg/mL | 100 µg/mL | 100 µg/mL | 110 µg/mL | – | – | –
11 | CC[C@@H](C)[C@@H](NC(=O)CNC(=O)[C@@H](CCSC)NC(=O)CNC(=O)[C@H](NC(=O)[C@@H](C)NC(=O)[C@@H](CCSC)NC(=O)[C@@H](Cc1ccccc1)NC(=O)[C@H](NC(=O)CNC(=O)[C@@H](Cc1ccccc1)NC(=O)[C@H](NC(=O)CNC(=O)CNC(=O)[C@@H](CO)NC(=O)[C@@H](CCC(N)=O)NC(=O)[C@@H](CCSC)NC(=O)[C@@H](CCSC)NC(=O)[C@H](NC(=O)[C@H](N)CCCCN)[C@H](C)O)[C@H](C)O)[C@H](C)O)[C@H](C)CC)C(=O)N[C@H](CCCNC(=N)N)C(=O)O [KU-5878-D(all)] (H-[dK][dT][dM][dM][dQ][dS]GG[dT][dF]G[dT][dF][dM][dA][dI]G[dM]G[dI][dR]-OH; N-terminus and C-terminus assumed) | – | – | – | – | – | – | MBC (μg/ml) value against Pseudomonas aeruginosa ([1]; ATCC 27853, 1 h): 300 µg/mL (≈ 135 µM); MBC (μg/ml) value against Staphylococcus aureus ([2]; ATCC 29213, 1 h): 300 µg/mL (≈ 135 µM)
12 | KTMMQSGGTF-TFMAIGMGIR [Peptide 5878-d68G] | 25 µg/mL | 20 µg/mL | 18 µg/mL | 25 µg/mL | – | – | –
13 | KTMMQSGGTFGTFMAAGMGIR [KU-5878-I73A] | > 300 µg/mL | > 300 µg/mL | > 300 µg/mL | > 300 µg/mL | >300 µg/mL | >300 µg/mL | –
14 | KTMMQSGGTAGTFMAIGMGIR [KU-5878-F67A] | > 300 µg/mL | > 300 µg/mL | > 300 µg/mL | > 300 µg/mL | >300 µg/mL | >300 µg/mL | –
15 | KTMMQSGGTFGTFMAIGMGIRQ [Peptide 5878-Q] | 150 µg/mL | 180 µg/mL | 180 µg/mL | 180 µg/mL | – | – | –
16 | KAMMQSGGTFGTFMAIGMGIR [KU-5878-T59A] | 150 µg/mL | 120 µg/mL | 130 µg/mL | 140 µg/mL | – | – | –
17 | KTMMQSGGTFGTFMAIGMGIRC [KU-5879] | – | – | – | – | 150 µg/mL | – | –
18 | CLRIGMRGRELMGGIGKTM [pCM19, reference compound] | – | – | – | – | 300 µg/mL | 250 µg/mL | –
19 | KTMMQSGGTFGTFMAIGMG [KU-5876] | – | – | – | – | >300 µg/mL | >300 µg/mL | –
20 | KTMMQSGGTFGTFMAIGM [KU-5875] | – | – | – | – | >300 µg/mL | >300 µg/mL | –
21 | KTMMQSGGTFGTFMAIGMGIR-NH2 [KU-5878-NH2] | – | – | – | – | 60 µg/mL | 70 µg/mL | –
22 | GKTMMQSGGTFGTFMAIGMGIRC [KU-5779] | – | – | – | – | 280 µg/mL | 250 µg/mL | –
23 | GKTMMQSGGTFGTFMAIGMGIR [KU-5778] | – | – | – | – | 300 µg/mL | 280 µg/mL | –
24 | GGIGKTMMQSGGTFGTFMAIGMGIRC [KU-5479] | – | – | – | – | – | 200 µg/mL | –
25 | MPVAVGPYGQSQPSCFDRVKMGFVMGCAVGMAAGALFGTFSCLRIGMRGRELMGGIGKTMMQSGGTFGTFMAIGMGIRC (protein, Homo sapiens Romo1) MPVAVGPYGQSQPSCFDRVKMGFVMGCAVGMAAGALFGTFSCLRIGMRGRELMGGIGKTMMQSGGTFGTFMAIGMGIRC | – | – | – | – | – | – | MBC value (μg/ml) against Pseudomonas aeruginosa ([1]; ATCC 27853, 1 hour reaction at 37° C.): Insoluble; MBC value (μg/ml) against Staphylococcus aureus ([2]; ATCC 29213, 1 hour reaction at 37° C.): Insoluble
